Experimental findings from ChEMBL document CHEMBL1255553, “Unusual antimalarial meroditerpenes from tropical red macroalgae” (Bioorg Med Chem Lett, 2010) are described below.

pIC50: −log10 of the molar value. Values after ≈ are worked out from the molar mass of the structure shown.

The test system of the experiment is Mycobacterium tuberculosis. Description: Antimicrobial activity against vancomycin-resistant Mycobacterium tuberculosis. It is filed as functional, organism-based.

As for `CC1=C2Cc3cc(ccc3O)C(=O)O[C@H](C(C)(C)Br)CC[C@](C)(O)[C@H](Br)CC[C@]2(C)[C@@H](Br)CC1`, the minimum inhibitory concentration (MIC) (commonly the lowest concentration found to suppress growth) came out at 11 µM (≈ 7.32 µg/mL).

Turning to `CC1=C2Cc3cc(ccc3O)C(=O)O[C@H](C(C)(C)O)CC[C@]3(C)O[C@H]3C/C=C(\C)C2CC1` (some centres undefined), the MIC was over 100 µM. With `Cc1cc(O)cc(CC[C@](C)(O)CCC[C@H](C)CCC[C@H](C)CCCC(C)C)c1O`, the negative-log IC50 (pIC50) (usually the IC50 on a negative log10 scale, so that one unit is a factor of ten) is under 4.00. Turning to `CC(C)=CCC[C@@](C)(O)[C@@H]1CC/C(C)=C/CC/C(C)=C/Cc2cc(ccc2O)C(=O)O1` [CALLOPHYCOLIDE A], the lowest concentration to inhibit growth (MIC) was 12 µM (≈ 5.12 µg/mL).
